Source: article PMC7993727, “Discovery of a novel AR/HDAC6 dual inhibitor for prostate cancer treatment” (Aging (Albany NY), 2021)

Molecular target: T1, HDAC6 (Homo sapiens, UniProt Q9UBN7)
T1 sequence (Q9UBN7 1-1215): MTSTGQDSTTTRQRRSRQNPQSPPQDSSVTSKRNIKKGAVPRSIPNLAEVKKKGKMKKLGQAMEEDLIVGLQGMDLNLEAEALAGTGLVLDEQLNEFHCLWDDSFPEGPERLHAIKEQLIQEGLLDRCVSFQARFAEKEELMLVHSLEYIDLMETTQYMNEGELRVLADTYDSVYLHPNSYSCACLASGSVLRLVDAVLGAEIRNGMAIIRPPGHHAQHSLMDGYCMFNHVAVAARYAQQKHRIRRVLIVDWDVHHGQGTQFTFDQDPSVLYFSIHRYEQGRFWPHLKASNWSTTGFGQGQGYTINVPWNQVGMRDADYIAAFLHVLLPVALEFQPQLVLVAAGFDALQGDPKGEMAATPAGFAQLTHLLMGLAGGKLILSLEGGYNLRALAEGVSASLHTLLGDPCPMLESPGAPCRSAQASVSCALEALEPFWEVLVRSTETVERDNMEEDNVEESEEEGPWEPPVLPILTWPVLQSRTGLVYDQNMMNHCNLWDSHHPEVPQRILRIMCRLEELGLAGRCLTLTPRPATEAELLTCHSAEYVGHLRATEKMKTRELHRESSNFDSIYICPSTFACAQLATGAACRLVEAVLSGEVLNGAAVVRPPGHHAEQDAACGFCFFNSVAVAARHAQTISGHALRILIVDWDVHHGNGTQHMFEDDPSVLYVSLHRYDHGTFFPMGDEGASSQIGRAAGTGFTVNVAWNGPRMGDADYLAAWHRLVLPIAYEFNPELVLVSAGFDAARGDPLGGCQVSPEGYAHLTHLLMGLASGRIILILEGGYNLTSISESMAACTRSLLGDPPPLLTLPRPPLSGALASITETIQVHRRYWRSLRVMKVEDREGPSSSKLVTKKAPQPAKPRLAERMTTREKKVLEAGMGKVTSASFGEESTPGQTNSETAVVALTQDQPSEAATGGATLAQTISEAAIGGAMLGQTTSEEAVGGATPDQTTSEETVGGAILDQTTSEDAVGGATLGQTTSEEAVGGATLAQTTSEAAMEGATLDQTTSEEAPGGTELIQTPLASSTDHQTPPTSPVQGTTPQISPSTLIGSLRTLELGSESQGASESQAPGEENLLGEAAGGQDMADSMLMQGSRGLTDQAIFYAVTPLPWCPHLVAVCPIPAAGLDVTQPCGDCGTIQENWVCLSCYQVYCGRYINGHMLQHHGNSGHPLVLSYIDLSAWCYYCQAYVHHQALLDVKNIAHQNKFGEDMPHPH
Experiment: acetylation of α-tubulin (HDAC6 substrate) in VCaP cells, Western blot
Assay type: cell-based
Conditions: 24 hours
Protocol: RNA expression level was analyzed by qRT-PCR and protein expression level was analyzed by Western blot. […] (I) Representative immunofluorescence microscopic images of VCaP cells for checking the subcellular localization of AR.
To evaluate the HDAC6 inhibition ability of Zeta55 in VCaP cells, the acetylation status of α-tubulin protein (a HDAC6 substrate) was assessed using western blot. […] We assessed the protein level of AR in VCaP cells.
The whole-cell extracts were prepared in lysis buffer with a protease inhibitor cocktail (Bimake), while the xenograft tissue extracts were prepared in 0.5% Nonidet P 40 Substitute solution (Biosharp) with cocktail protease inhibitor (Bimake). Each sample containing 30 μg of total protein was loaded onto 10% SDS-PAGE and electrotransferred onto polyvinylidene fluoride membranes. The membranes were blocked with 5% skimmed milk in PBST at room temperature for 2 hours and incubated with primary antibodies at 4° C overnight. After the membranes were washed with PBST three times, they were incubated with horseradish peroxidase-conjugated anti-rabbit or anti-mouse secondary antibody at room temperature for 1 hour. Chemiluminescent detection was performed with WesternBright ECL (Advansta). The immunoblots were visualized using the FluorChem FC3 system (ProteinSimple).

`N#Cc1ccc(N2C(=O)C3(CCC3)N(c3ccc(C(=O)NO)c(F)c3)C2=S)cc1C(F)(F)F` [Zeta55] was tested, and the α-tubulin acetylation was “enhanced α-tubulin acetylation in a dose-dependent manner”.
